Entries after “also recorded” stand apart in the source; their conditions may differ.
How the values were obtained:
pendrin (slc26a4) = target: T1, pendrin (slc26a4) (Mus musculus, UniProt Q9R155); assay: Selectivity: pendrin-mediated Cl-/I- exchange, YFP assay; format: cell-based, murine; conditions: 10 µM
T1 construct: expressed in transfected cells; host or cells: FRT cells expressing YFP and slc26a4
T1 sequence (Q9R155 1-780): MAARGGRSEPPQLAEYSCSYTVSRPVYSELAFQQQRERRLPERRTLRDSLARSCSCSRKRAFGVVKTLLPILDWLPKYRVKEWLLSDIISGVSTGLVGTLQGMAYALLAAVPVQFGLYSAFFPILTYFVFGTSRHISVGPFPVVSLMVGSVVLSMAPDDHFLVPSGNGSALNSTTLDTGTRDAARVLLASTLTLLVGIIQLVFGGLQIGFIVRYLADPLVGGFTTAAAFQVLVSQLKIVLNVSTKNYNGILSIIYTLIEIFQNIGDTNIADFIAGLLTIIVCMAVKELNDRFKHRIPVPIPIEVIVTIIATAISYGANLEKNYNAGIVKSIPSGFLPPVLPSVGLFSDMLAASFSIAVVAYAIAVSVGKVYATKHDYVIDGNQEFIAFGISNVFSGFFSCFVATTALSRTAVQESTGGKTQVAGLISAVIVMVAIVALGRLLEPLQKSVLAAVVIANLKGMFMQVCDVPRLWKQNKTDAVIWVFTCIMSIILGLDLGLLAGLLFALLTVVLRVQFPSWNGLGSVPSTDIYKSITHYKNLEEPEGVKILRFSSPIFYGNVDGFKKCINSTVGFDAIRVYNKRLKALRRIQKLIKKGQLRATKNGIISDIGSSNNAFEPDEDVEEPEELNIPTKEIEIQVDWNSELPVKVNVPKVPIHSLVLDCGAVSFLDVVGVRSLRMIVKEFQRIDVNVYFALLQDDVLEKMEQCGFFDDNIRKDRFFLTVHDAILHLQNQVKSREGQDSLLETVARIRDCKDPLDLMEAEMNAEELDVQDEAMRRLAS
From the text: (§1) To investigate Compound A1 selectivity, transport assays were done on a panel of SLC26-family homologs, and other relevant epithelial ion transporters and channels. […] In separate studies, to investigate possible action of Compound A1 on multiple ion transporters and channels in a human epithelium, human bronchial epithelial (HBE) cells were studied by short-circuit current, with successive additions of amiloride (to block the epithelial sodium channel ENaC), forskolin, CFTRinh-172 (to block CFTR), and ATP (to activate the Ca^2+-activated chloride channel, CaCC) (FIG. 5C).
YFP-based assays of CFTR, pendrin and TMEM16A were as described. HEK cells transfected to express YFP and SLC26A3, slc26a6 or slc26a9 were functionally assayed using a Cl^-/I^- exchange protocol. Assays of Cl^-/HCO3^- exchange were done using BCECF as an intracellular pH indicator as described for pendrin. […]
HEK293 cells transfected with pIRES-YFP-slc26a9 were plated in 96-well black-walled, clear-bottom tissue culture plates (Corning Life Sciences, Tewksbury, MA) after coating with FNC Coating Mix (AthenaES, Baltimore, MD). […] Assays of slc26a9-mediated anion exchange were done by initially recording YFP fluorescence prior to addition of 100 µL of NaI-substituted PBS to test wells, with the initial rate of Cl^-/I^- exchange deduced from fluorescence intensity by single exponential regression. […]

slc26a9 = target: T2, slc26a9 (Mus musculus, UniProt Q8BU91); assay: Selectivity: slc26a9 Cl-/I- exchange in HEK293 cells; format: cell-based, murine; conditions: 10 µM
T2 construct: host or cells: HEK293 cells
T2 sequence (Q8BU91 1-790): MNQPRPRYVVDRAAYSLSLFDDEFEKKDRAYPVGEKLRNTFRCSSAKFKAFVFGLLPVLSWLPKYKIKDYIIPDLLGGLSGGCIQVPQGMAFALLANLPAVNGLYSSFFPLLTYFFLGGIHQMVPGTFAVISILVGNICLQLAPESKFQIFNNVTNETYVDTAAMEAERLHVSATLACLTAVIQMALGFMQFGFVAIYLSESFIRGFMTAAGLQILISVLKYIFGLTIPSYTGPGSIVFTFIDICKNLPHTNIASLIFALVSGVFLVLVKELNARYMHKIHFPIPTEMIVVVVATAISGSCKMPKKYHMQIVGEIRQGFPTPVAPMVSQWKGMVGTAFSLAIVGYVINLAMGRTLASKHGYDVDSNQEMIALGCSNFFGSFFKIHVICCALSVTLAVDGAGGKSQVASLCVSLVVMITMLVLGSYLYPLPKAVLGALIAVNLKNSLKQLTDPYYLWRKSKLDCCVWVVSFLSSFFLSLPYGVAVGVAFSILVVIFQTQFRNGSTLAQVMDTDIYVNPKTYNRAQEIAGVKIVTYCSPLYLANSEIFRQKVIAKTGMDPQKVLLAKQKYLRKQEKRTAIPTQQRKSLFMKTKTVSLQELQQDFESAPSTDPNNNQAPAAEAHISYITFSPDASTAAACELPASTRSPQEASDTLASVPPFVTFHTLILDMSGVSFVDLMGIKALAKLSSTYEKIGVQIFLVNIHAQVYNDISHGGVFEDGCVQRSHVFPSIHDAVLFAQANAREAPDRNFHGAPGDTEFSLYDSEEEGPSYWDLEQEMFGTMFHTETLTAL
From the text: as §1
(§2) HEK293 cells transfected with pIRES-YFP-slc26a9 were plated in 96-well black-walled, clear-bottom tissue culture plates (Corning Life Sciences, Tewksbury, MA) after coating with FNC Coating Mix (AthenaES, Baltimore, MD). […] Assays of slc26a9-mediated anion exchange were done by initially recording YFP fluorescence prior to addition of 100 µL of NaI-substituted PBS to test wells, with the initial rate of Cl^-/I^- exchange deduced from fluorescence intensity by single exponential regression. […] To assay SLC26A3 function, HEK293 cells transduced with lentiviral particles generated from the pLVX-IRES-mCherry-SLC26A3 transfer vector were transfected to express YFP for Cl^-/I^- exchange assays as described above; red fluorescence images were acquired to confirm SLC26A3 expression in cells. […]

[1] = system: ENaC, CFTR or CaCC activity in human bronchial epithelial (HBE) cells; assay: Short-circuit current in well-differentiated HBE cells; format: cell-based; conditions: 10 µM, pre-treatment 20 min; amiloride, forskolin, CFTRinh-172, ATP additions
From the text: as §1, §2

Cc1c(CC(=O)O)c(=O)oc2c(C)c(OCc3cccc(Br)c3)ccc12 [Compound A1]
effect on Cl-/I- exchange activity of pendrin (slc26a4) (pendrin (slc26a4)): did not alter; also recorded: did not inhibit; also recorded: differences not significant
effect on Cl-/I- exchange activity of slc26a9 (slc26a9): did not alter; also recorded: differences not significant
effect on short-circuit current responses [1]: did not alter short-circuit current responses; also recorded: differences not significant

From patent publication US20230339878A1, “SLC26A3 INHIBITORS AND USE THEREOF” (THE REGENTS OF THE UNIVERSITY OF CALIFORNIA, priority 2018, published 2023)
